In the supplement of paper PMC13380429:

Experiments:
Conditions in all cases: 72 h
Vero E6 [1] = test: drug sensitivity score (DSS) for viability; higher = more toxic; extreme values may be limits of the assay
U2OS [2] = test: as above
Calu-3 [3] = test: as above
HepG2 [4] = test: as above
Caco-2 [5] = test: as above
Vero E6 [6] = test: cell viability relative to DMSO; higher = less toxic
U2OS [7] = test: as above
Calu-3 [8] = test: as above
HepG2 [9] = test: as above
Caco-2 [10] = test: as above
U2OS [11] = test: relative viability EC50 (midpoint between 100% and the lowest measured viability); higher = less toxic
HepG2 [12] = test: as above
Vero E6 [13] = test: as above
Caco-2 [14] = test: as above
Calu-3 [15] = test: as above

| Structure (SMILES) | drug sensitivity score (Vero E6 [1]) | drug sensitivity score (U2OS [2]) | drug sensitivity score (Calu-3 [3]) | drug sensitivity score (HepG2 [4]) | drug sensitivity score (Caco-2 [5]) | cell viability (Vero E6 [6]; 1 nM) | cell viability (Vero E6 [6]; 10 nM) | cell viability (Vero E6 [6]; 100 nM) | cell viability (Vero E6 [6]; 1000 nM) | cell viability (Vero E6 [6]; 10000 nM) | cell viability (U2OS [7]; 1 nM) | cell viability (U2OS [7]; 10 nM) | cell viability (U2OS [7]; 100 nM) | cell viability (U2OS [7]; 1000 nM) | cell viability (U2OS [7]; 10000 nM) | cell viability (Calu-3 [8]; 1 nM) | cell viability (Calu-3 [8]; 10 nM) | cell viability (Calu-3 [8]; 100 nM) | cell viability (Calu-3 [8]; 1000 nM) | cell viability (Calu-3 [8]; 10000 nM) | cell viability (HepG2 [9]; 1 nM) | cell viability (HepG2 [9]; 10 nM) | cell viability (HepG2 [9]; 100 nM) | cell viability (HepG2 [9]; 1000 nM) | cell viability (HepG2 [9]; 10000 nM) | cell viability (Caco-2 [10]; 1 nM) | cell viability (Caco-2 [10]; 10 nM) | cell viability (Caco-2 [10]; 100 nM) | cell viability (Caco-2 [10]; 1000 nM) | cell viability (Caco-2 [10]; 10000 nM) | relative viability EC50 (U2OS [11]) | relative viability EC50 (HepG2 [12]) | relative viability EC50 (Vero E6 [13]) | relative viability EC50 (Caco-2 [14]) | relative viability EC50 (Calu-3 [15]) |
| --- | --- | --- | --- | --- | --- | --- | --- | --- | --- | --- | --- | --- | --- | --- | --- | --- | --- | --- | --- | --- | --- | --- | --- | --- | --- | --- | --- | --- | --- | --- | --- | --- | --- | --- | --- |
| O=C(O)c1ccc(-n2nc(-c3ccccc3O)nc2-c2ccccc2O)cc1 [deferasirox] | 2.1 | 3.9 | 0.9 | 5.2 | 2.7 | 104% | 104% | 106% | 101% | 56.9% | 103% | 102% | 99% | 93.5% | 47.1% | 99.7% | 100% | 97.4% | 104% | 72.2% | 110% | 93.2% | 106% | 91.6% | 31.3% | 110% | 92.5% | 104% | 96% | 58.8% | 2.16 µM | 2.17 µM | – | – | – |
| COc1c2occc2c(OC)c2c(=O)cc(C)oc12 [khellin] | 0 | 0 | – | 0.3 | 0 | 105% | 99.8% | 94.2% | 99.7% | 98.5% | 103% | 98.6% | 99.5% | 98.8% | 96.3% | – | – | – | – | – | 96.2% | 99.2% | 96.6% | 89% | 90.1% | 97.1% | 110% | 94.9% | 107% | 102% | > 10 µM | > 10 µM | > 10 µM | > 10 µM | – |
| COC(=O)[C@H](CC(C)C)NC(=O)c1ccc(NC[C@@H](N)CS)cc1-c1cccc2ccccc12 [GGTI-298] | 0.9 | 2.9 | 0 | 0 | 1 | 105% | 110% | 104% | 86.3% | 92.7% | 95.3% | 97.4% | 92.7% | 94.3% | 60.9% | 93.1% | 104% | 88.8% | 100% | 93.7% | 90.4% | 106% | 101% | 93.8% | 100% | 92.3% | 100% | 95.2% | 98.8% | 75.9% | – | > 10 µM | > 10 µM | > 10 µM | > 10 µM |
| FC(F)(F)c1ccc(/C=C/c2nc(COc3ccc(CCCCn4ccnn4)cc3)co2)cc1 [mubritinib] | 0 | 0 | – | 10.8 | 3.1 | 103% | 103% | 100% | 103% | 88.4% | 100% | 103% | 93.7% | 93.7% | 97.2% | – | – | – | – | – | 106% | 104% | 78.3% | 56% | 28.1% | 97.5% | 109% | 92.5% | 81.6% | 84.9% | > 10 µM | 0.429 µM | > 10 µM | > 10 µM | – |
| COc1cc2nccc(Oc3ccc(NC(=O)C4(C(=O)Nc5ccc(F)cc5)CC4)cc3)c2cc1OC [cabozantinib] | 2.8 | 2.8 | 5.3 | 3.1 | 6.3 | 101% | 98% | 97.2% | 99.3% | 48% | 103% | 104% | 99% | 98.3% | 50.1% | 94.2% | 109% | 100% | 88.1% | 39.2% | 107% | 92.6% | 97.1% | 98.9% | 44.4% | 93% | 97.4% | 96.7% | 82% | 35% | – | 3.02 µM | 3.07 µM | 1.47 µM | 1.75 µM |
| CN(C)NC(=O)CCC(=O)O [daminozide] | 0 | 0 | – | 0 | 0 | 94.6% | 98.2% | 97.1% | 98.3% | 103% | 97.8% | 97.8% | 95% | 101% | 101% | – | – | – | – | – | 103% | 96.4% | 102% | 102% | 103% | 93.5% | 96.3% | 96.5% | 98.3% | 100% | > 10 µM | > 10 µM | > 10 µM | > 10 µM | – |
